Legend:
[1] = biological target: T1, Muscarinic acetylcholine receptor M2 (Homo sapiens, UniProt P08172); assay type: functional, cell-based
T1 sequence (P08172 whole entry): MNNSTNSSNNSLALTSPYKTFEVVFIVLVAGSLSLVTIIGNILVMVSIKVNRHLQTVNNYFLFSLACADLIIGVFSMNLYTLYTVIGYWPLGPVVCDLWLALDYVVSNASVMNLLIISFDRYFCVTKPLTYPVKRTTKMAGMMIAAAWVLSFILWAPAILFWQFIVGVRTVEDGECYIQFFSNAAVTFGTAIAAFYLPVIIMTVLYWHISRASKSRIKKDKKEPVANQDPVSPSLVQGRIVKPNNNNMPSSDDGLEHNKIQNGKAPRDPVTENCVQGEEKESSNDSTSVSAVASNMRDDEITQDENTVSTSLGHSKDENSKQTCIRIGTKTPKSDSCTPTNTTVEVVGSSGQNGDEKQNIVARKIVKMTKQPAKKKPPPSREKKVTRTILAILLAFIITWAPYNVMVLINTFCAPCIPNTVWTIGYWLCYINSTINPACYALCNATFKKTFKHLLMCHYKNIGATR

Cannabinoid receptor 1 = Cannabinoid receptor 1 (Homo sapiens, UniProt P21554); assay type: functional, cell-based
[2] = biological target: 5-hydroxytryptamine receptor 2A (Homo sapiens, UniProt P28223); assay type: functional, cell-based
[3] = biological target: Delta-type opioid receptor (Homo sapiens, UniProt P41143)
Progesterone receptor = biological target: T2, Progesterone receptor (Homo sapiens, UniProt P06401); assay type: functional
T2 sequence (P06401 whole entry): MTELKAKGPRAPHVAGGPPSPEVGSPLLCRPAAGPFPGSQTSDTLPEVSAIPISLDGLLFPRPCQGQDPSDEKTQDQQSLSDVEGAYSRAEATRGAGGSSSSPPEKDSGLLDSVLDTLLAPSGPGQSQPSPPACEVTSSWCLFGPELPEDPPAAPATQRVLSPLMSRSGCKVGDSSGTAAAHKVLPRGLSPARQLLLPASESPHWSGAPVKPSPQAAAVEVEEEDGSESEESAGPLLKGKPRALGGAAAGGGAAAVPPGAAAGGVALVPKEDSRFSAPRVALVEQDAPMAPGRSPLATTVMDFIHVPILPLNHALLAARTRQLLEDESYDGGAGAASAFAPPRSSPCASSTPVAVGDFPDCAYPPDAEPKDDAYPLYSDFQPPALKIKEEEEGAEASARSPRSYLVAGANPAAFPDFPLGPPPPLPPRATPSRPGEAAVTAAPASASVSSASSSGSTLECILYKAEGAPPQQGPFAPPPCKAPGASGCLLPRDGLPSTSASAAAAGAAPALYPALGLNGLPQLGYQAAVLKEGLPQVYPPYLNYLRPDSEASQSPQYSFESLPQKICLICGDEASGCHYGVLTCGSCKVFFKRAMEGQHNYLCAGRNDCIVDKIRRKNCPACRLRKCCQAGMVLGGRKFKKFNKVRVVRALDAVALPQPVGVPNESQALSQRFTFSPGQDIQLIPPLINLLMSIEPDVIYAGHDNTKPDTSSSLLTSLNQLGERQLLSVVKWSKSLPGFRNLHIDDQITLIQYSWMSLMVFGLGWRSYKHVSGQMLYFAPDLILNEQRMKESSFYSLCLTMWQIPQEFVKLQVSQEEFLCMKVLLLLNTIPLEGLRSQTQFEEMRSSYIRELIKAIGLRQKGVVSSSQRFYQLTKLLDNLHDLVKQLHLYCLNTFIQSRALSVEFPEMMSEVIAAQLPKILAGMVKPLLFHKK

[4] = biological target: T3, Prostaglandin G/H synthase 1 (Rattus norvegicus, UniProt Q63921); assay type: functional
T3 sequence (Q63921 whole entry): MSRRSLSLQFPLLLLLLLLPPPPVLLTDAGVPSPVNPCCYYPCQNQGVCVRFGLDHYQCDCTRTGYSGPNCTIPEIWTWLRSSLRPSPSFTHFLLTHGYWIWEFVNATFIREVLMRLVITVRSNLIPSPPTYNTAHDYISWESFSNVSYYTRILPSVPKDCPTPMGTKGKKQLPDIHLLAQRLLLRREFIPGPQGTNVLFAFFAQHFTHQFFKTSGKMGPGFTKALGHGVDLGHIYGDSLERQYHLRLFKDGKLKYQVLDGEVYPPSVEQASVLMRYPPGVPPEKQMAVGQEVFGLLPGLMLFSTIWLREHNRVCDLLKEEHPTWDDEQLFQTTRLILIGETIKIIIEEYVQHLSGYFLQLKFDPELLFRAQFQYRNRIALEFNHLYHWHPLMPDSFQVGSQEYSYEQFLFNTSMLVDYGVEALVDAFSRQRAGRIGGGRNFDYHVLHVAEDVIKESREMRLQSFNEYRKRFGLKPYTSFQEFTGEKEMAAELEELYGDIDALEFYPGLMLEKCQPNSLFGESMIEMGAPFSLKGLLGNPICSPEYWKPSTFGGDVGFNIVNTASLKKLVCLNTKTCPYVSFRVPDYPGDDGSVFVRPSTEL

[5] = biological target: T4, Amine oxidase [flavin-containing] A (Homo sapiens, UniProt P21397); assay type: functional
T4 sequence (P21397 whole entry): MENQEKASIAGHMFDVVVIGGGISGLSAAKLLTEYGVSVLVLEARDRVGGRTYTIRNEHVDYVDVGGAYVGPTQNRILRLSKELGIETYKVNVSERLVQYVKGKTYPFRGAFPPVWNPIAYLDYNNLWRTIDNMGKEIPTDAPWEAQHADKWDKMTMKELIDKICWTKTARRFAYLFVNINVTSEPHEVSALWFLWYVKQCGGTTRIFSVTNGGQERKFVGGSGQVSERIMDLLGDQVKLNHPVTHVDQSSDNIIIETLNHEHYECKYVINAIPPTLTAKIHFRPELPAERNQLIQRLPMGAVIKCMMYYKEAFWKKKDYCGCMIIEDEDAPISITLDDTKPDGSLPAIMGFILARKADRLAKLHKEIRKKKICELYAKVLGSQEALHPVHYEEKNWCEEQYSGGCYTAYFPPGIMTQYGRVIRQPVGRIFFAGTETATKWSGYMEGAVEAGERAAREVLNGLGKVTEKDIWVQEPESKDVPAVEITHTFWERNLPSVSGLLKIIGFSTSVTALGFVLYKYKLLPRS
Note: assay procedure not described here.

Sequence of Delta-type opioid receptor (P41143 whole entry): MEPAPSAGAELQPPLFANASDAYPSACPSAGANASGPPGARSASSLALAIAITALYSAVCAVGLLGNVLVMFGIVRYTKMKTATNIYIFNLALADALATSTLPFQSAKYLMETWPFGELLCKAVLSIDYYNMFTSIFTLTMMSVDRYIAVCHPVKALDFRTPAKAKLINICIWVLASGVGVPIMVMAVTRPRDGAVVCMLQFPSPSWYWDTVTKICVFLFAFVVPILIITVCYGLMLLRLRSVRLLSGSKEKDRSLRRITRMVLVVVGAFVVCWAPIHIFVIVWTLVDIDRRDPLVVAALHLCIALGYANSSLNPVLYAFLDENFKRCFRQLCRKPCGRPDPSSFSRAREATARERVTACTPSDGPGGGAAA
Sequence of 5-hydroxytryptamine receptor 2A (P28223 whole entry): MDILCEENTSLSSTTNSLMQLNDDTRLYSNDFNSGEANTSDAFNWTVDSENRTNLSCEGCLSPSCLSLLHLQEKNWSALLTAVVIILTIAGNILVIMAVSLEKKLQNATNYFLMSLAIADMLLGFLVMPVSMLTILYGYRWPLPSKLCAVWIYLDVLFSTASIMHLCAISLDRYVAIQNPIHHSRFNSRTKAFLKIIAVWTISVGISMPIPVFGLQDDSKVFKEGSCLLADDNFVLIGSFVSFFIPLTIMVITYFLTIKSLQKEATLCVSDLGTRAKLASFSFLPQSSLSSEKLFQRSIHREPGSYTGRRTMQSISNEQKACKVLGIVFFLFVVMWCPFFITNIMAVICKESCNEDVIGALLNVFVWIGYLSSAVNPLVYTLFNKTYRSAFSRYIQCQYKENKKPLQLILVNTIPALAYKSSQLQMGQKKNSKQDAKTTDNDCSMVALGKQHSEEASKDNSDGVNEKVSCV
Sequence of Cannabinoid receptor 1 (P21554 whole entry): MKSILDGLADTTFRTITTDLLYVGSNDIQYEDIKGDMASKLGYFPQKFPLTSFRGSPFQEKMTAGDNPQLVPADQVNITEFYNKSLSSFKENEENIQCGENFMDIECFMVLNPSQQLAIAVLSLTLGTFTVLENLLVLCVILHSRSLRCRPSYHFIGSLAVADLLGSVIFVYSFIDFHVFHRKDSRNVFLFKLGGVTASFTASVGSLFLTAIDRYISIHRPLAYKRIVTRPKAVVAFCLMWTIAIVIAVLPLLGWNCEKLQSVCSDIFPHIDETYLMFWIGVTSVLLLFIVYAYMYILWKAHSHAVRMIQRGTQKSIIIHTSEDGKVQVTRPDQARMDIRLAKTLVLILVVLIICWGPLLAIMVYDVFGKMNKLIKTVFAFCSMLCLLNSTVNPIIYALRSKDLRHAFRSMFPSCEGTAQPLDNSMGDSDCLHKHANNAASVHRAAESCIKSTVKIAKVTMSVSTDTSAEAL

Cc1ccc2c(-c3ccccc3)nc(=O)n(C(C)C)c2c1 [PROQUAZONE]
AC50 [1]: > 30 µM | AC50 (Cannabinoid receptor 1): > 30 µM | AC50 [2]: > 30 µM | AC50 [3]: 30 µM | AC50 (Progesterone receptor): > 30 µM | AC50 [4]: 0.2 µM | AC50 [5]: > 30 µM

CN1CCN(c2c(F)cc3c(=O)c(C(=O)O)cn4c3c2SCC4)CC1 [RUFLOXACIN]
AC50 [1]: > 30 µM | AC50 (Cannabinoid receptor 1): > 30 µM | AC50 [2]: > 30 µM | AC50 [3]: > 30 µM | AC50 (Progesterone receptor): > 30 µM | AC50 [4]: > 30 µM | AC50 [5]: > 30 µM

COc1c(O[C@@H]2O[C@H](CO)[C@@H](O)[C@H](O)[C@H]2O)cc2c(c1OC)-c1ccc(SC)c(=O)cc1[C@@H](NC(C)=O)CC2 [THIOCOLCHICOSIDE]
AC50 [1]: > 30 µM | AC50 (Cannabinoid receptor 1): > 30 µM | AC50 [2]: > 30 µM | AC50 [3]: > 30 µM | AC50 (Progesterone receptor): > 30 µM | AC50 [4]: > 30 µM | AC50 [5]: > 30 µM

CN1c2ccccc2C(NCCCCCCC(=O)O)c2ccc(Cl)cc2S1(=O)=O (configuration not stated) [TIANEPTINE]
AC50 [1]: > 30 µM | AC50 (Cannabinoid receptor 1): > 30 µM | AC50 [2]: > 30 µM | AC50 [3]: 28 µM | AC50 (Progesterone receptor): > 30 µM | AC50 [4]: > 30 µM | AC50 [5]: > 30 µM

COc1cc2c(Nc3ccc(Br)cc3F)ncnc2cc1OCC1CCN(C)CC1 [VANDETANIB]
AC50 [1]: > 30 µM | AC50 (Cannabinoid receptor 1): > 30 µM | AC50 [2]: > 30 µM | AC50 [3]: > 30 µM | AC50 (Progesterone receptor): > 10 µM | AC50 [4]: > 30 µM | AC50 [5]: > 30 µM

C=CC(N)CCC(=O)O (configuration not stated) [VIGABATRIN]
AC50 [1]: > 10 µM | AC50 (Cannabinoid receptor 1): > 30 µM | AC50 [2]: > 10 µM | AC50 [3]: > 30 µM | AC50 (Progesterone receptor): > 10 µM | AC50 [4]: > 10 µM | AC50 [5]: > 10 µM
